The results in this text go back to ChEMBL document CHEMBL4266026, “Bisleuconothines B-D, Modified Eburnane-Aspidosperma Bisindole Alkaloids from Leuconotis griffithii” (J Nat Prod, 2018).

Each structure is given as a SMILES string.

This test concerns A549. The test is described as follows: Cytotoxicity against human A549 cells assessed as cell growth inhibition by MTT assay. Format: functional, cell-based. For orientation: Tetrazolium dyes change colour on reduction, which living cells bring about.
Broadly, the IC50 is the concentration that gives 50% inhibition. Turning to `CC[C@@]12CCCN3CC[C@]4(c5c(O)ccc([C@H]6C[C@@]7(CC)CCCN8CC[C@]9(C(=O)c%10ccccc%10N69)[C@H]87)c5N[C@@H]4CC1)[C@H]32`, the IC50 amounted to 20.1 µM.
The figure for `CC[C@]12C=C(c3ccc(O)c4c3N[C@@H]3CC[C@@]5(CC)CCCN6CC[C@@]43[C@H]65)N3c4ccccc4C(=O)[C@]34CCN(CCC1)[C@H]24` is 33.6 µM.
Regarding `CC[C@@]12CCCN3CC[C@]4(c5c(ccc6c5O[C@@]57[C@@H]8N9CCC[C@]8(CC)C[C@@H]6N5c5ccccc5[C@]7(O)CC9)N(C=O)[C@@H]4CC1)[C@H]32`, the IC50 worked out at 36.1 µM.
